Test results published in patent publication US20240189239A1, “PROCESS FOR CONTINUOUS HOT MELT GRANULATION OF LOW SOLUBLE PHARMACEUTICALS” (Merck Patent GmbH, priority 2021, published 2024).

Test: Dissolution measurement of granules of Example 1 (paddle, 900 ml SGFsp, 37° C.)
Type: physicochemical
Settings: paddle 75 rpm, 50 mg ITZ, up to 120 min
Protocol: For measuring the dissolution, granules as obtained in Example 1 were used directly without further processing. 3 samples per temperature setup were used. 500 mg 10% ITZ granulate were weighted (Mettler Toledo Delta Range XP105) which equals 50 mg ITZ API.
Dissolution was performed using a Sotax AT7 smart with an online Photometer Specord 200+ from Analytik Jena. As a medium 900 ml SGF.sp (20 g NaCl, 800 ml 0.1 M HCl ad 10.0 L VE-water) at 37° C.±0.5 was used. The following settings were used: Rotation speed 75 rpm; Paddle method; Pre-filter: Glass Mircofiber Filters GE Whatmann GF/D Diameter 25 mm, 5 mm HELMA flow-through cuvette, Sampling Points: 5,20,35,50,60,120 Min.
The granulation with polyvinyl alcohol at a temperature between 140° C. to 170° C. increases the solubility of the compound (lines 2 to 6). At 175° C. the solubility suddenly increases. With higher temperature solubility is further enhanced. An immediate release can be observed for temperatures of 180° C. to 190° C. (lines 8 to 10). With a further temperature increase above the melting temperature of PCA (line 11; 200° C.) the drug release rates are delayed.

In the case of `CCC(C)n1ncn(-c2ccc(N3CCN(c4ccc(OCC5COC(Cn6cncn6)(c6ccc(Cl)cc6Cl)O5)cc4)CC3)cc2)c1=O` (stereo not shown) [crystalline itraconazole, itraconazole], the “solubility / drug release of itraconazole in the release medium (FIG. 3)” value is reported as “very low solubility”.
